Results from patent publication US5232941A, “Caffeic acid derivatives and pharmaceutical compositions containing the same” (Suntory Limited, priority 1990, dated 1993).

Assays:
12-lipoxygenase [1] = molecular target: T1, 12-lipoxygenase (Rattus norvegicus, UniProt F1LQ70); test: 12-Lipoxygenase Inhibition Activity (In Vitro), 12-HETE production by rat platelet enzyme solution; type: biochemical; conditions: [14C]-arachidonic acid, 5 min pre-incubation at 37° C., 5 min reaction, read-out: Inhibition rate (%) of 12-HETE production; for inhibition at 1 µM: 10^-6 M; for inhibition at 0.1 µM: 10^-7 M
T1 construct: the frozen platelet rich plasma was allowed to melt and then subjected to ultrasonic treatment in ice water so that an enzyme solution was obtained; from tissue; host or cells: rat platelets (washed, frozen, sonicated; crude enzyme solution)
T1 sequence (F1LQ70 1-663): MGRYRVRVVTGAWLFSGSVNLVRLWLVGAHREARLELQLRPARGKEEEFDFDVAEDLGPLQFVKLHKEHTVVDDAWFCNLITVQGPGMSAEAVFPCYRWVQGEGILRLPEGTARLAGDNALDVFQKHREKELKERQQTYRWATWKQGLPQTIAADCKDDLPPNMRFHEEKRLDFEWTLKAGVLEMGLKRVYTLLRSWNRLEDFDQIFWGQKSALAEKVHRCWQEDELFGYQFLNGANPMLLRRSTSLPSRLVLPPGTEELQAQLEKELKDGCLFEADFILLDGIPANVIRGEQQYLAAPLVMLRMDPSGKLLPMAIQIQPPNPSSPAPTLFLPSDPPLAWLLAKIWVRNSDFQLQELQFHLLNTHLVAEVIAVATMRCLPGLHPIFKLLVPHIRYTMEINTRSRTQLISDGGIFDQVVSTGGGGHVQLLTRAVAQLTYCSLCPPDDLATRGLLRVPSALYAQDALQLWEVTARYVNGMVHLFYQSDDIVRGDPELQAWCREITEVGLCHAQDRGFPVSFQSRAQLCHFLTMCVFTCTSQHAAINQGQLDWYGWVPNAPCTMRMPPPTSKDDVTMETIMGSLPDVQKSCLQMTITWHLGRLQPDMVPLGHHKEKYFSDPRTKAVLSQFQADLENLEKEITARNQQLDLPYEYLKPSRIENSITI
Method: The 12-lipoxygenase inhibition activity of each test compound according to the present invention was measured in the following manner.
Firstly, blood was collected from the heart of a rat (while using sodium citrate as an anticoagulant), and platelet rich plasma was prepared by a method known per se in the art. The platelet rich plasma was washed twice with a isotonic buffer (A) [134 mM of NaCl, 5 mM of D-glucose, 1 mM of EDTA, 1 mM of EGTA, 15 mM of tris-HCl (pH 7.4)] and was then frozen and stored at -80° C. Prior to a pharmacological test, the frozen platelet rich plasma was allowed to melt and then subjected to ultrasonic treatment in ice water so that an enzyme solution was obtained. To the isotonic buffer (A), 1 mM of GSH, the test compound (adjusted to have the final concentrations of 1 μM and 0.1 μM) and the enzyme solution (300-500 μg of protein) were added. Subsequent to pre-incubation at 37° C. for 5 minutes, [^14 C]-arachidonic acid (0.05 μCi) (final concentration: […]) was added to react it for 5 minutes. After the reaction was terminated, the reaction mixture was spread over a thin layer plate of silica gel to conduct autoradiography. 12-HETE was identified and a reduction in its production was determined as an index for its 12-lipoxygenase inhibition activity.

[2] = tested on: 12-Lipoxygenase in platelets; test: 12-Lipoxygenase Inhibition Activity in Platelets (Extro Vivo); design: species or system SD rat; conditions: 1.0 mg/kg i.v., blood 10 min after administration; base preparation group = 100%
Method: Under anesthesia with pentobarbital, an SD rat (8 week-old, male) was intravenously administered with a polyethylene glycol solution containing 1.0 mg/kg of a test compound. Ten minutes after the administration, blood was collected from the abdominal vena cava, and the inhibitory activity was measured as in the above test (1).
Setting at 100% the amount of 12-HETE of the group in which a base preparation was administered instead of the drugs, the results, namely, the amount of 12-HETE obtained when each test drug was administered was indicated in terms of %.

12-lipoxygenase [3] = conditions: conventionally known compound; cited from earlier work

| Structure (SMILES) | inhibition at 1 µM (12-lipoxygenase [1]) [%] | inhibition at 0.1 µM (12-lipoxygenase [1]) [%] | inhibitory effect on amount of 12-HETE [2] [%] | 12-lipoxygenase inhibitory action (12-lipoxygenase [3]) |
| --- | --- | --- | --- | --- |
| CCOC(=O)Oc1cc(C=C(C#N)C(=O)OCCc2cccs2)cc(OC(=O)OCC)c1OC(=O)OCC [Compound 29, 2-(2-thienyl)-ethyl 2-cyano-3-(3,4,5-triethoxycarbonyloxyphenyl)-2-propenoate] | 59.2 | 25.1 |  |  |
| CCOC(=O)Oc1ccc(C=C(C#N)C(=O)OC(C)Cc2ccccc2)cc1OC(=O)OCC (centres unmarked) [Compound 9, 1-methyl-2-phenylethyl 2-cyano-3-(3,4-diethoxycarbonyloxyphenyl)-2-propenoate] | 71.8 | 4.2 |  |  |
| CCC[C@@H](OC(=O)C(C#N)=Cc1ccc(OC(=O)OCC)c(OC(=O)OCC)c1)c1ccccc1 [Compound 8, (R)-(+)-1-phenylbutyl 2-cyano-3-(3,4-diethoxycarbonyloxyphenyl)-2-propenoate] | 65.1 | 9.4 |  |  |
| CCCCCCCOC(=O)Oc1ccc(C=C(C#N)C(=O)OCCc2cccs2)cc1OC(=O)OCCCCCCC [Compound 22, 2-(2-thienyl)-ethyl 2-cyano-3-(3,4-diheptoxycarbonyloxyphenyl)-2-propenoate] | 27.6 | 14 |  |  |
| CCOC(=O)Oc1ccc(C=C(C#N)C(=O)OCCc2ccccc2)cc1OC(=O)OCC [Compound 1, phenethyl 2-cyano-3-(3,4-diethoxycarbonyloxyphenyl)-2-propenoate] | 85.4 | 52.9 | 30 |  |
| CC(C)COC(=O)Oc1ccc(C=C(C#N)C(=O)OCCc2cccs2)cc1OC(=O)OCC(C)C [Compound 20, 2-(2-thienyl)-ethyl 2-cyano-3-(3,4-diisobutoxycarbonyloxyphenyl)-2-propenoate] | 63.4 | 41.2 |  |  |
| O=c1cc(-c2ccccc2)oc2cc(O)c(O)c(O)c12 [baicalein] |  |  |  | 12-lipoxygenase inhibitory action |
| CCOC(=O)Oc1cc(C=C(C#N)C(=O)OCCc2cccs2)ccc1O [Compound 23, 2-(2-thienyl)-ethyl 2-cyano-3-(3-ethoxycarbonyloxy-4-hydroxyphenyl)-2-propenoate] | 84.5 | 64.5 |  |  |
| CCOC(=O)Oc1ccc(C=C(C#N)C(=O)OCc2ccco2)cc1OC(=O)OCC [Compound 11, 2-furylmethyl 2-cyano-3-(3,4-diethoxycarbonyloxyphenyl)-2-propenoate] | 53.8 | 23.5 |  |  |
| N#CC(=Cc1ccc2oc(=O)oc2c1)C(=O)OCCc1cccs1 [Compound 34, 2-(2-thienyl)-ethyl 2-cyano-3-(3,4-cyclic dioxolonylphenyl)-2-propenoate] |  | 91.5 |  |  |
| N#CC(=Cc1ccc2oc(=O)oc2c1)C(=O)OCCc1ccccc1 [Compound 35, phenethyl 2-cyano-3-(3,4-cyclic dioxolonylphenyl)-2-propenoate] | 82.9 | 56.6 |  |  |
| COC(=O)Oc1ccc(C=C(C#N)C(=O)OCCc2cccs2)cc1OC(=O)OC [Compound 19, 2-(2-thienyl)-ethyl 2-cyano-3-(3,4-dimethoxycarbonyloxyphenyl)-2-propenoate] | 50.8 | 4.6 |  |  |
| CCOC(=O)Oc1ccc(C=C(C#N)C(=O)OCCc2cccs2)cc1OC(=O)OCC [Compound 18, 2-(2-thienyl)-ethyl 2-cyano-3-(3,4-diethoxycarbonyloxyphenyl)-2-propenoate] |  | 65.8 |  |  |
| CCC[C@H](OC(=O)C(C#N)=Cc1ccc(OC(=O)OCC)c(OC(=O)OCC)c1)c1ccccc1 [Compound 7, (S)-(-)-1-phenylbutyl 2-cyano-3-(3,4-diethoxycarbonyloxyphenyl)-2-propenoate] | 75.6 | 40.8 |  |  |
| CCOC(=O)Oc1ccc(C=C(C#N)C(=O)OCCCc2ccccn2)cc1OC(=O)OCC [Compound 12, 3-(2-pyridyl)-propyl 2-cyano-3-(3,4-diethoxycarbonyloxyphenyl)-2-propenoate] | 68.4 | 16.3 |  |  |
| CCOC(=O)Oc1ccc(C=C(C#N)C(=O)OCCc2ccsc2)cc1OC(=O)OCC [Compound 10, 2-(3-thienyl)-ethyl 2-cyano-3-(3,4-diethoxycarbonyloxyphenyl)-2-propenoate] | 79.3 | 38.7 |  |  |
| N#CC(=Cc1ccc(OC(=O)OCc2ccccc2)c(OC(=O)OCc2ccccc2)c1)C(=O)OCCc1cccs1 [Compound 21, 2-(2-thienyl)-ethyl 2-cyano-3-(3,4-dibenzyloxycarbonyloxyphenyl)-2-propenoate] | 41.6 | < 0 |  |  |
| CCOC(=O)Oc1ccc(C=C(C#N)C(=O)OCc2ccsc2)cc1OC(=O)OCC [Compound 14, 3-thienylmethyl 2-cyano-3-(3,4-diethoxycarbonyloxyphenyl)-2-propenoate] | 64.6 | 34.6 |  |  |
| CCOC(=O)Oc1ccc(C=C(C#N)C(=O)OCCCc2cccnc2)cc1OC(=O)OCC [Compound 13, 3-(3-pyridyl)-propyl 2-cyano-3-(3,4-diethoxycarbonyloxyphenyl)-2-propenoate] | 40.8 | < 0 |  |  |
| CCOC(=O)Oc1cc(C=C(C#N)C(=O)OCCc2ccccc2)ccc1O [Compound 17, phenethyl 2-cyano-3-(3-ethoxycarbonyloxy-4-hydroxyphenyl)-2-propenoate] | 75.9 | 59.3 | 18 |  |
| N#CC(=Cc1ccc2oc(=O)oc2c1)C(=O)Oc1ccccc1 [Compound 36, phenyl 2-cyano-3-(3,4-cyclic dioxolonylphenyl)-2-propenoate] |  | 75.6 |  |  |
| CCOC(=O)Oc1ccc(C=C(C#N)C(=O)OCC)cc1OC(=O)OCC [Compound 6, ethyl 2-cyano-3-(3,4-diethoxycarbonyloxyphenyl)-2-propenoate] |  | 60.3 |  |  |
